Measurements: ChEMBL document CHEMBL1201862, “PubChem BioAssay data set” (2004)
Calls of active or inactive are those of the source.

Experiments:
[1] = target: 1-acylglycerol-3-phosphate O-acyltransferase ABHD5/Perilipin-5 (Homo sapiens, UniProt Q00G26+Q8WTS1); experiment: Luminescence-based biochemical high throughput dose response assay for inhibitors of the interaction of the lipase co-activator protein, abhydrolase domain containing 5 (ABHD5) with perilipin-5 (MLDP; PLIN5) (2K validation set). [Related pubchem assays (depositor defined):AID493035, AID493241]
Perilipin-1/ABHD5 = Perilipin-1/ABHD5 (Homo sapiens, UniProt O60240+Q8WTS1); experiment: Luminescence-based biochemical high throughput dose response assay for inhibitors of the interaction of the lipase co-activator protein, abhydrolase domain containing 5 (ABHD5) with perilipin-1 (PLIN1) (2K validation set). [Related pubchem assays (depositor defined):AID493027, AID493057]
Troponin, cardiac muscle = Troponin, cardiac muscle (Homo sapiens, UniProt P19429+P45379+P63316); experiment: Fluorescence-based biochemical high throughput dose response assay for activators of the calcium sensitivity of cardiac Regulated Thin Filaments (RTF). [Related pubchem assays (depositor defined):AID493008, AID493018, AID504382, AID504383]; format: protein-complex assay
Hexokinase = Hexokinase (Trypanosoma brucei, UniProt Q38C41); experiment: Confirmation assay for inhibitors of Trypanosoma brucei hexokinase 1-Analogue-first series. [Related pubchem assays (depositor defined):AID1430, AID1632, AID2516, AID2560, AID2579, AID2600, AID449725, AID492951]; format: functional
Leucine aminopeptidase = target: T1, Leucine aminopeptidase (Plasmodium falciparum 3D7, UniProt Q8IL11); experiment: P. falciparum M17LAP inhibitors, primary screen, biochemical, fluorogenic H-Leu-NHMec substrate, 1536-well (AID 1619); format: functional
T1 sequence (Q8IL11 whole entry): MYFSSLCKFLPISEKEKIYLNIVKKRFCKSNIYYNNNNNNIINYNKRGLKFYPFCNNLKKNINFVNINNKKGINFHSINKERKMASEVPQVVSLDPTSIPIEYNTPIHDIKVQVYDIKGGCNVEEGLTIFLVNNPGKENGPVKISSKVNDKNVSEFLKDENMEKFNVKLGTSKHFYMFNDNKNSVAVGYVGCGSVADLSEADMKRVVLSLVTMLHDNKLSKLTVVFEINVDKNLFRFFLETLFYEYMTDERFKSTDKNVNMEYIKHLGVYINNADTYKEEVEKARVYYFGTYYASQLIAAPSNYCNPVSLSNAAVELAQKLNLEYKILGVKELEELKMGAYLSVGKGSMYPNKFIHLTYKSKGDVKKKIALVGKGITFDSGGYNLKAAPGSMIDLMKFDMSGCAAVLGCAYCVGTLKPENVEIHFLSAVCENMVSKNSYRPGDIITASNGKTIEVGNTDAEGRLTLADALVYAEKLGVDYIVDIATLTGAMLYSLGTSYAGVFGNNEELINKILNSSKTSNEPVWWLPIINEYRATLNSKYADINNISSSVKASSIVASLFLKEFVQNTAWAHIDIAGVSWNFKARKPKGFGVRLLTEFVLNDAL

[2] = target: Alkaline phosphatase, placental type (Homo sapiens, UniProt P05187); experiment: human placental alkaline phosphatase inhibition – biochemical, luminescence, confirmation (AID 1512); format: functional
[3] = target: T2, Alkaline phosphatase, tissue-nonspecific isozyme (Homo sapiens, UniProt P05186); experiment: potency against alkaline phosphatase TNAP – biochemical, luminescent, dose response, SAR follow-up (AID 1056)
T2 sequence (P05186 whole entry): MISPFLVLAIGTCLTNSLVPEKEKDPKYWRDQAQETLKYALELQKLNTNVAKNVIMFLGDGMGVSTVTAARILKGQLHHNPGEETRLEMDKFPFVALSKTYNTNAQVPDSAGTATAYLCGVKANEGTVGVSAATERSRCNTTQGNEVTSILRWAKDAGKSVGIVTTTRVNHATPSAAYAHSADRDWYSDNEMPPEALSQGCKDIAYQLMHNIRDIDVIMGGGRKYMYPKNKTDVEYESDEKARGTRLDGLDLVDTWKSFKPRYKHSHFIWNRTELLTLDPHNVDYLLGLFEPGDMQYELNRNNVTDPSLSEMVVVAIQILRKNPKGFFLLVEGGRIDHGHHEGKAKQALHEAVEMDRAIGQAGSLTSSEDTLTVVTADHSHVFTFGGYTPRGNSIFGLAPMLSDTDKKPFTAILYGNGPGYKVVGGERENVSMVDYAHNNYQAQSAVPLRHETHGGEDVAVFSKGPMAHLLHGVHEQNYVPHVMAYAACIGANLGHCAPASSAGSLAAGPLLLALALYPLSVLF

Chain of 1-acylglycerol-3-phosphate O-acyltransferase ABHD5/Perilipin-5 (Q00G26 whole entry, the tested form may be a part): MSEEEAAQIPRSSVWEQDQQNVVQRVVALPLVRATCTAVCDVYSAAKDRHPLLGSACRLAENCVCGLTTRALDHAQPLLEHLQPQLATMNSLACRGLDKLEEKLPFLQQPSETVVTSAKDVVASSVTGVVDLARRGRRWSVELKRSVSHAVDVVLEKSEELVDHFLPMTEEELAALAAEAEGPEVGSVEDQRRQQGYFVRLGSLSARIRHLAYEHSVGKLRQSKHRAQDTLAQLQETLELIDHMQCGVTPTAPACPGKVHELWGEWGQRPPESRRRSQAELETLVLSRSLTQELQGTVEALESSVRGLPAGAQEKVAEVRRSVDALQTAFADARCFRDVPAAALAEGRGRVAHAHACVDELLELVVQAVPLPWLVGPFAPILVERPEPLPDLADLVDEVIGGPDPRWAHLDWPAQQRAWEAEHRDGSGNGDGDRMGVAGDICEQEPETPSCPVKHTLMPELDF
Chain of 1-acylglycerol-3-phosphate O-acyltransferase ABHD5/Perilipin-5 (Q8WTS1 whole entry, the tested form may be a part): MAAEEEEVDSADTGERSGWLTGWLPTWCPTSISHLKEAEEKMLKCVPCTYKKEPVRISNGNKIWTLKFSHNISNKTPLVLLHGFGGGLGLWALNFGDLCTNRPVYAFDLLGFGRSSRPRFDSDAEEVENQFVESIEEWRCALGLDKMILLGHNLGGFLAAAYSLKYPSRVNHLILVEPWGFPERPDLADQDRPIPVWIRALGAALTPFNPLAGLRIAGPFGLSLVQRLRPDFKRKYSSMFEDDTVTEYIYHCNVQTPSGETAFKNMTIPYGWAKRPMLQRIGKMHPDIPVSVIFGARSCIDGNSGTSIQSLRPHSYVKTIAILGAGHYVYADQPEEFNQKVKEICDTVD
Chain of Perilipin-1/ABHD5 (Q8WTS1 whole entry, the tested form may be a part): as above
Chain of Perilipin-1/ABHD5 (O60240 whole entry, the tested form may be a part): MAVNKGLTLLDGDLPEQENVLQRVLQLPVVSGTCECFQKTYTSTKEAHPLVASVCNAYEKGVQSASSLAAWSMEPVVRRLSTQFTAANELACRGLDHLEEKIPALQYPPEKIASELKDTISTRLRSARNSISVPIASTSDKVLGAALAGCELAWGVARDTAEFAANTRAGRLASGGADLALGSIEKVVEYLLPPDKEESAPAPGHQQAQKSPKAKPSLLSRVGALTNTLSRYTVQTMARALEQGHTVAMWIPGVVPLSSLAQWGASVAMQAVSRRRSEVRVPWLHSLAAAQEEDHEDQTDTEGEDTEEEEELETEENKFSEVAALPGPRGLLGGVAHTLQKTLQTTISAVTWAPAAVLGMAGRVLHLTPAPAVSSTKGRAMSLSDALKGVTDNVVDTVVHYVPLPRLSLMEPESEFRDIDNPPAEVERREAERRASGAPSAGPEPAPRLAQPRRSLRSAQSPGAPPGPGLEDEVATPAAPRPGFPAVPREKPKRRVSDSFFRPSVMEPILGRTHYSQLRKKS
Chain of Hexokinase (Q38C41 whole entry): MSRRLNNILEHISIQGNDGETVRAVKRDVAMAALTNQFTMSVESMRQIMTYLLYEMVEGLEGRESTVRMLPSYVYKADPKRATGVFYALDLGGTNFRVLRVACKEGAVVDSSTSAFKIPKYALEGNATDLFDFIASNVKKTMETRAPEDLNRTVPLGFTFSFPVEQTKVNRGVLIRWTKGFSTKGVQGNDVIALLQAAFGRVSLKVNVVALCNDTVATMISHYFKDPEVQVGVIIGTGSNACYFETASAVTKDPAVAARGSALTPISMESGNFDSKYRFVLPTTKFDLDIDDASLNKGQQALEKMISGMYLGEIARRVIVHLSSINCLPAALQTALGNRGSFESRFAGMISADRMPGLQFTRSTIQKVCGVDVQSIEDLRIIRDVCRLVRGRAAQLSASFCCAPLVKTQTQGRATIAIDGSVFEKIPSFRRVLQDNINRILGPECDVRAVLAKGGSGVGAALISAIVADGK
Chain of Alkaline phosphatase, placental type (P05187 whole entry): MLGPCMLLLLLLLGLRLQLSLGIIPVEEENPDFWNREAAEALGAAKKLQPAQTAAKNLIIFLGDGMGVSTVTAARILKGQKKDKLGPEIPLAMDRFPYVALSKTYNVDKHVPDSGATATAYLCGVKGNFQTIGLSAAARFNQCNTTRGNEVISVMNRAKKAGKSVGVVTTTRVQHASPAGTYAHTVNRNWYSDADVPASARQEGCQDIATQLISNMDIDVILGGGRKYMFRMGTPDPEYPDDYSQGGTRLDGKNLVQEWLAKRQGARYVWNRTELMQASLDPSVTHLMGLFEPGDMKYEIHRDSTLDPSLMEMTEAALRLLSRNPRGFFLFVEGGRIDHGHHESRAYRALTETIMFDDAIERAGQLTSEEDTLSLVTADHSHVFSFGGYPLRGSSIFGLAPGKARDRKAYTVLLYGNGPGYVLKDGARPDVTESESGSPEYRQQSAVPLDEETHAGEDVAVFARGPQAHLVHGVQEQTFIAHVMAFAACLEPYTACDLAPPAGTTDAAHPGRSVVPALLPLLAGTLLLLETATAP

Which IC50 [1] does the source give for `COc1ccccc1C(=O)Oc1ccc2c(c1)O/C(=C\c1ccncc1)C2=O` here?
Its IC50 is 8.12 µM (active).

And the IC50 (Perilipin-1/ABHD5)?
Its IC50 is 6.72 µM (active).

And the EC50 (Troponin, cardiac muscle)?
The EC50 was 13.7 µM (inactive).

For `COc1ccc(C(=O)Nc2c(C(=O)O)ccc(Cl)c2Cl)cc1`, which IC50 (Hexokinase) is on record?
Its IC50 is > 25 µM (inactive).

Which results are given for `CCn1c(SCC(=O)c2ccc(O)c(O)c2)nnc1-c1ccccc1`?
IC50 (Leucine aminopeptidase): 13.3 µM (active); IC50 [2]: 4.32 µM (active); IC50 [3]: 35.8 µM (active)
